Laboratory results reported in patent US5244795A, “Processes for preparing cholesterol lowering compounds” (Merck & Co., Inc., priority 1992, dated 1993).
Converted amounts (≈) assume the structure as drawn.

Columns and labels:
Type in all cases: cell-based
T. mentagrophytes = test: Microdilution broth assay; conditions: Trichophyton mentagrophytes; strain MF 4864; 35° C., 48-72 hours; read-out: MIC (minimum inhibitory concentration)
Description: (§1) The broad spectrum antifungal activity of the present compounds was further determined by broth dilution methods. The compounds are particularly active towards filamentous fungi and yeasts including Candida albicans and Crypt. neoformans. The sensitivity of filamentous fungi and yeasts was determined using inhibitor dilution assays in microtiter format. A standardized spore suspension for testing the filamentous fungi was prepared by inoculating sterile distilled water with spores such that 1.5-7.5×10^3 colony forming units were added per well. The microtiter wells were filled with 75 μl of yeast nitrogen base containing 1% Dextrose medium (YNB/D) containing compound. Fifty μl of inoculated YNB/D medium was then added to the wells.
(§2) The sensitivity of yeasts was determined by inoculating sterile distilled water with aliquots of a 4-hour yeast culture grown in Yeast Morphology (YM) media at 35° C. and diluting in YNB/D to yield a final concentration of 1.5-7.5×10^3 colony forming units/well. Seventy-five μl of inoculated media was added per well. To test the sensitivity of yeast, compound was solubilized in 10 percent aqueous DMSO at 2.56 mg/ml. The compound was diluted serially in YNB/D from 128 to 0.06 μg/ml. The wells were filled with 75 μl of drug containing media. […] Representative of the antifungal activity are the minimum inhibitory concentration and minimum fungicidal concentration data shown below in Table II: […]

Candida parapsilosis = test: Microdilution broth assay; conditions: Lodderomyces parapsilosis; strain MY 1010; 35° C., 24 to 48 hours; read-out: MIC (minimum inhibitory concentration)
Description: as §1, §2

Candida tropicalis = test: Microdilution broth assay; conditions: strain MY 1012, 35° C., 24 to 48 hours, read-out: MIC (minimum inhibitory concentration)
Description: as §1, §2

Aspergillus fumigatus = test: Microdilution broth assay; conditions: strain MF 4839, 35° C., 48-72 hours, read-out: MIC (minimum inhibitory concentration)
Description: as §1, §2

Candida albicans = test: Microdilution broth assay; conditions: 35° C., 24 to 48 hours
Description: as §1, §2

Cryptococcus neoformans = test: Microdilution broth assay; conditions: strain MY 1051, 35° C., 24 to 48 hours, read-out: MIC (minimum inhibitory concentration)
Description: as §1, §2

Saccharomyces cerevisiae = test: Microdilution broth assay; conditions: strain MY 1976, 35° C., 24 to 48 hours, read-out: MIC (minimum inhibitory concentration)
Description: as §1, §2

Candida guilliermondii = test: Microdilution broth assay; conditions: Meyerozyma guilliermondii; strain MY 1019; 35° C., 24 to 48 hours; read-out: MIC (minimum inhibitory concentration)
Description: as §1, §2

Aspergillus niger = test: FISP disc diffusion assay; parameters: key to zone quality qualifier: F: clear zone, fuzzy edges; S: slightly hazy zone (some growth observed throughout zone); H: hazy zone (considerable growth observed throughout zone); V: very hazy zone (zone of inhibition is barely discernable); R: zone displays a ring of resistant growth; no qualifier: clear zone throughout, sharp edges; conditions: 250 μg/ml in CH2Cl2
Description: (§3) The FISP assay employs disc diffusion susceptibility testing methods to generate a spectrum of activity against a panel of representative yeasts, filamentous fungi and bacteria.
The filamentous fungi used in the assay were Penicillium sp. Aspergillus niger, Trichoderma sp., Phoma sp., Trichoderma lignorum, Fusarium oxysporum, Ustilago maydis, Ceratocystis ulmi, Alternaria soloni, Verticillium serrae, Botrytis allii, Scopulariopsis communis, Cephalosporium sp., Cercospora beticola, Rhizomucor miehei, Aspergillus flavus and Aspergillus fumigatus.
(§4) For carrying out the assay, seeded assay plates are prepared in the following manner according to the type of assay strain.
Inocula for filamentous fungi are prepared by scraping the surface of stock plates maintained on potato dextrose agar with a moistened sterile dacron swab. The spores and mycelia are then suspended in 10 milliliters of sterile potato dextrose broth and adjusted to 65 percent transmission at 660 nm. […]
(§5) Following incubation, the inhibition zones are measured and recorded. […]
(§6) FISP data is reported as the diameter (in mm.) of the zone of inhibition of growth in agar diffusion assays. The zone is determined by measuring growth that differs from the background lawn. […]

Streptomyces sp. = test: FISP disc diffusion assay; parameters: key: F: clear zone, fuzzy edges; S: slightly hazy zone (some growth observed throughout zone); H: hazy zone (considerable growth observed throughout zone); V: very hazy zone (zone of inhibition is barely discernable); R: zone displays a ring of resistant growth; no qualifier: clear zone throughout, sharp edges; conditions: 250 μg/ml in CH2Cl2
Description: as §3
The bacteria employed in the assay are Streptomyces sp., Acholeplasma laidlawii and Bacillus subtilis.
as §4
(§7) Inocula for yeasts and bacterial strains are prepared from overnight broth cultures then diluted into potato dextrose agar to a final concentration of either 40 percent or 70 percent transmission at 660 nm.
(§8) The seeded agar media thus prepared are dispensed into petri dishes for assays (11 ml per dish).
The samples to be tested for production of antifungal agent are applied to 6.2 mm filter paper discs (25 μl/disc) and air dried at 24° C. When the sample to be tested is crude broth, it may be centrifuged prior to application. The discs bearing the material to be tested are then applied employing sterile conditions to the seeded assay plates. The assay plates are then incubated at either 28° C. or 37° C. for 24 hours. […]
as §5, §6

Cryptococcus laurentii = test: FISP disc diffusion assay; parameters: key: F: clear zone, fuzzy edges; S: slightly hazy zone (some growth observed throughout zone); H: hazy zone (considerable growth observed throughout zone); V: very hazy zone (zone of inhibition is barely discernable); R: zone displays a ring of resistant growth; no qualifier: clear zone throughout, sharp edges; conditions: 250 μg/ml in CH2Cl2
Description: as §3
(§9) The yeasts employed in the assay are Saccharomyces cerevisiae, Candida albicans, Candida tropicalis, Candida rugosa, Brettanomyces bruxellensis, Torulospora hansenii, Candida guilliermondi, Candida pseudotropicalis, Torulopsis glabrata, Cryptococcus albidus, Cryptococcus laurentii and Kluyveromyces fragilis.
as §4, §7
(§10) Assay plates for the yeasts and filamentous fungi are prepared by diluting the inoculum into appropriate molten agar medium, cooled to 45° C. to obtain a final concentration of 4 percent.
as §8
(§11) The samples to be tested for production of antifungal agent are applied to 6.2 mm filter paper discs (25 μl/disc) and air dried at 24° C. When the sample to be tested is crude broth, it may be centrifuged prior to application. The discs bearing the material to be tested are then applied employing sterile conditions to the seeded assay plates. The assay plates are then incubated at either 28° C. or 37° C. for 24 hours. In one of the assays for Bacillus subtilis, the sample is applied to a disc previously impregnated with 4M potassium chloride at 25 μl/disc and then air dried.
(§12) Following incubation, the inhibition zones are measured and recorded. The measurements are made from the extreme edge where growth differs from the background zone. The zones are noted as to appearance as fuzzy edge and clear center, hazy throughout, slightly hazy, very hazy or ringed.
(§13) FISP data is reported as the diameter (in mm.) of the zone of inhibition of growth in agar diffusion assays. The zone is determined by measuring growth that differs from the background lawn. A qualifier is also added to describe the zone quality as listed below: no qualifier: clear zone throughout, sharp edges

Cryptococcus albidus = test: FISP disc diffusion assay; parameters: key: F: clear zone, fuzzy edges; S: slightly hazy zone (some growth observed throughout zone); H: hazy zone (considerable growth observed throughout zone); V: very hazy zone (zone of inhibition is barely discernable); R: zone displays a ring of resistant growth; no qualifier: clear zone throughout, sharp edges; conditions: 250 μg/ml in CH2Cl2
Description: as §3, §9, §4, §7, §10, §8, §11, §12, §13

CC(/C=C/C=C(\C)C(O)C(C)C(=O)O[C@H]1C[C@H](C)C=C2C=C[C@@]3(C)O[C@@H](O)CC(=O)[C@]3(C)[C@H]21)=C\C=C\C(=O)O (some centres unmarked) [Compound A]
MIC (T. mentagrophytes): 32 µg/mL (≈ 59.2 µM)
MIC (Candida parapsilosis): 0.25 µg/mL (≈ 0.462 µM)
MIC (Candida tropicalis): ≤ 0.06 µg/mL
MIC (Aspergillus fumigatus): 64 µg/mL (≈ 118 µM)
MIC (Candida albicans; Candida albicans, strain MY 1055, read-out: MIC (minimum inhibitory concentration)): ≤ 0.06 µg/mL
MIC (minimum inhibitory concentration) (Candida albicans; strain MY 1028): ≤ 0.06 µg/mL
MIC (Cryptococcus neoformans): 32 µg/mL (≈ 59.2 µM)
MIC (Saccharomyces cerevisiae): > 128 µg/mL
MIC (Candida guilliermondii): > 128 µg/mL
zone quality qualifier (Aspergillus niger): H
zone of inhibition at 250 µg/mL (Aspergillus niger; Aspergillus niger, read-out: diameter of the zone of inhibition of growth): 0 mm
zone quality qualifier (Streptomyces sp.): V
zone quality qualifier (Cryptococcus laurentii): H and V
zone quality qualifier (Cryptococcus albidus): V
